Article PMC11802874, “The hypolipidemic effect of MI-883, the combined CAR agonist/ PXR antagonist, in diet-induced hypercholesterolemia model” (Nature Communications, 2025)
Where “and” joins values, the source holds several entries; their conditions need not be identical. Equal values may be shown once.

What was measured:
[1] = test system: humanized PXR-CAR-CYP3A4/3A7 mice, liver; assay: NGS RNA-Seq of liver samples (HFD study); format: in vivo, mouse
Protocol: Total RNA from liver samples has been isolated using TRIZOL®. Total RNA was purified using Agencourt RNAClean XP Beads (Beckman Coulter, Inc.) and then the diluted RNA was quantified using Qubit 2.0 Fluorometer with Qubit RNA BR Assay Kit (Invitrogen) for precise measurement. The integrity of purified RNA was evaluated based on RIN (>7) acquired using the 2100 Bioanalyzer System with Total RNA Nano Chip (Agilent Technologies) according to the manufacturer’s protocol.
The input amount of total RNA used in the libraries was 520 ng. Libraries were constructed with NEBNext Ultra II Directional RNA Library Prep Kit for Illumina (New England Biolabs Inc., Ipswich, MA, USA). […] The samples were multiplexed using suitable molecular barcodes by using the NEBNext Multiplex Oligos from Illumina. Adaptor enrichment was performed by using eight cycles of PCR.
The concentration of molecular libraries was measured using Qubit 2.0 Fluorometer with Qubit dsDNA HS Assay Kit (Invitrogen) and subsequently, the fragment sizes were analyzed by Bioanalyzer System 2100 using High Sensitivity DNA Chip (Agilent Technologies), with expected fragments between 200 and 600 bp in size. The molarity of individual libraries was calculated using determined concentrations and modal lengths. Each sample of the library was normalized to 14 nM concentration, and the normalized libraries were pooled and sequenced on an Illumina NovaSeq6000 platform (Illumina) with paired-end sequencing of libraries with a read length of 150 b.
The quality of raw sequencing data was assessed using MultiQC tool. Fastq files were aligned to the mouse reference genome (mm10) using STAR aligner and featureCounts was used to make count matrices. Data was filtered to only include genes with a minimum 60 counts in all samples. Data were analyzed using the DESeq2 package of RStudio 2023.06.1 and R software v4.3.1 (https://www.R-project.org/). […] P values were adjusted for multiple testing to reduce false discovery rate. For further analysis RNAs with more than twofold expression were selected (log2FC > 1 or < –1). Differential expression was analyzed using DESeq2 package (Fig. 4a). Volcano plot was visualized using R package ggplot2 and ggrepel. Gene ontology (GO) and pathway analyses were done with the R package clusterProfiler[64] using function enrichGO. P value < 0.001 was defined as the significance threshold.
A heatmap was made using z-score normalized reads (z = [x-mean]/standard deviation) and visualized using the R package pheatmap. Hierarchical clustering was performed with the Ward method as a part of the pheatmap R package. The data presented in this publication have been deposited in NCBI’s Gene Expression Omnibus database with GEO Series accession number GSE262786.https://www.ncbi.nlm.nih.gov/geo/query/acc.cgi?acc=GSE262786.

PPARα = PPARα (Homo sapiens, UniProt Q07869); assay: Luciferase reporter gene assay PPARα, HepG2
From the text: (§1) The luciferase reporter gene assays for FXR, LXRα, LXRβ, THα, GRα, PPARα, PPARδ/β, PPARγ, AhR, VD, ERα, ERβ and mouse Car are described in our recent paper[19]
(§2) Gal4-LBD constructs of tested nuclear receptors have been used together with pGL4.31[luc2P/GAL4UAS/Hygro] luciferase reporter construct and pRL-TK Renilla expression vector (both from Promega, Hercules, USA) in HepG2 cells transfected with Lipofectamine 2000 or 3000 reagents. For GRα and FXR receptors, full-length expression vectors have been used with pGRE-luc or pFXRE-luc luciferase constructs. For the aryl hydrocarbon receptor (AhR), p1A1-luc construct was used with only pRL-TK vector for transfection normalization. A dual reporter assay (Promega, Hercules, USA) was used to analyze both firefly and Renilla luciferase activities.
(§3) Gal4-LBD constructs of tested nuclear receptors have been used together with pGL5-luc luciferase reporter construct and pRL-TK Renilla expression vector in HepG2 cells transfected with Lipofectamine 2000 or 3000 reagents. For GRα and FXR receptors, full-length expression vectors have been used with pGRE-luc or pFXRE-luc luciferase constructs. For the aryl hydrocarbon receptor (AhR), p1A1-luc construct was used with only pRL-TK vector for transfection normalization. […] Bars represent means±S.D. (n=3).

LXRα = LXRα (Homo sapiens, UniProt Q13133); assay: Luciferase reporter gene assay LXRα, HepG2
From the text: as §2, §3

PPARγ = PPARγ (Homo sapiens, UniProt P37231); assay: Luciferase reporter gene assay PPARγ, HepG2
From the text: as §1, §2, §3

PXR/MED1 = target: T1, PXR/MED1 (Homo sapiens, UniProt O75469); assay: Mammalian two-hybrid PXR/coactivator MED1 recruitment, HepG2; format: cell-based; set-up: key: firefly/Metridia luciferase activity ratio (normalized)
T1 construct: PXR-LBD (residues 108–434); expressed in transfected cells; host or cells: HepG2
Protocol: The GAL4-dependent pGL4-G5, harboring a pentamer of GAL4 binding sites in front of the E1b promoter was described before.
Transient batch transfection of HepG2 cells was done as described above. […] All transfections included 0.01 µg pMetLuc2control per well for normalization of firefly luciferase reporter activities. After overnight incubation with the transfection mixtures, cells were treated with chemicals in a volume of 100 µl of cell culture medium. […] Firefly luciferase activity was measured in 10 µl of cell lysates, and Metridia luciferase activity was analyzed in 10 µl of medium supernatant, both as described before. Results were normalized by dividing firefly luciferase activity by Metridia luciferase activity measured from the same well. Measurements of samples were repeated several times (n ≥ 3).

THα = THα (Homo sapiens, UniProt P10827); assay: Luciferase reporter gene assay THα, HepG2
From the text: as §2, §3

[2] = test system: humanized PXR-CAR-CYP3A4/3A7 mice, plasma; assay: Plasma metabolomics (HFD study); format: in vivo, mouse
Protocol: Metabolomic plasma analysis was performed using plasma samples from male PXR/CAR/CYP3A4 mice (n=5) treated with MI-883 in the proof-of-concept study involving a high-fat diet^23. Plasma samples were prepared on ice, and each sample was separated into two 20 μl aliquots. All prepared aliquots were then frozen and stored at −80°C until analysis. Plasma aliquots were thawed, and protein precipitation was performed by adding 60 μl of a mixture containing 40% methanol, 40% acetonitrile, and 20% water. Samples were mixed, incubated for 12 hours at -20°C, and then centrifuged at 20,000 g for 10 minutes. The supernatants were collected for analysis by LC-MS/MS. A pooled quality control sample was prepared by mixing 10 μl from each sample. LC separation was performed on an iHILIC® Classic column (iHILIC®-(P) Classic, HILIC Column, PEEK,100x2.1mm, 5µm, 200Å, Hilicon, Umeå, Sweden) using a water/acetonitrile gradient with 10 mM ammonium formate, starting from 95% to 42% over 15 minutes in both polarities. LC-MS/MS analysis was conducted on the ID-X Orbitrap Tribrid Mass Spectrometer (ThermoFisher Scientific).

[3] = test system: humanized PXR-CAR-CYP3A4/3A7 mice; assay: Glucose homeostasis: IPGTT, IPITT, glycemia, insulin (HFD study); format: in vivo, mouse; set-up: insulinemia: unit not given here
Protocol: Intraperitoneal glucose tolerance test (IPGTT) and Intraperitoneal Insulin Tolerance Test (IPITT) assays were performed one week before the end of the HFD study. For IPGTT, mice fasted for 18 h were intraperitoneally injected with 20% D-glucose solution (2 g/kg BW). Blood was sampled before the injection and 15, 30, 60, and 120 min after. For the IPITT assay, mice fasted for 4 h were administered with 0.75 IU insulin/kg BW. Blood was sampled before the injection and 15, 30, 45, 60, and 90 min after.

[4] = Stability in mouse plasma; format: in vitro ADME; details: read-out: Stability in mouse plasma, t1/2
From the text: Plasma protein binding, and stability in human and mouse plasma have been tested as previously described.

[5] = FigS18c, plasma, individual animals

THα, sequence (P10827 163-410 isoform P10827-2 limits assumed): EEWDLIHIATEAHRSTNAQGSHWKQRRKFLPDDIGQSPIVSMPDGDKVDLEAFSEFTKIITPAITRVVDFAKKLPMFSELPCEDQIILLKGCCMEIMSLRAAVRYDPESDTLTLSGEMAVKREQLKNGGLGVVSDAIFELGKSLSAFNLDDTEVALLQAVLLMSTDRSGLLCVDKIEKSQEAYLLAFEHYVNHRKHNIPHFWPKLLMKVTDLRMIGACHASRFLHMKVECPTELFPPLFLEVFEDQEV
T1 sequence (O75469 108-434): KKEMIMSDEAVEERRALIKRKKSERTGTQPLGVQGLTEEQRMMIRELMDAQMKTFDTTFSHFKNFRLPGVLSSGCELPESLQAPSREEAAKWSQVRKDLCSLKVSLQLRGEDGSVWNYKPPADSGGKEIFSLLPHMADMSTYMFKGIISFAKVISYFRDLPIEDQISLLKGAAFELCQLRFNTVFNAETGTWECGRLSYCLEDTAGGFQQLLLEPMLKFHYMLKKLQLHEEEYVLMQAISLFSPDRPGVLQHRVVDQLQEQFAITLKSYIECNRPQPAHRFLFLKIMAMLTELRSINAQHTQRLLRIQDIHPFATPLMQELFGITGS
PPARγ, sequence (P37231 238-503 limits assumed): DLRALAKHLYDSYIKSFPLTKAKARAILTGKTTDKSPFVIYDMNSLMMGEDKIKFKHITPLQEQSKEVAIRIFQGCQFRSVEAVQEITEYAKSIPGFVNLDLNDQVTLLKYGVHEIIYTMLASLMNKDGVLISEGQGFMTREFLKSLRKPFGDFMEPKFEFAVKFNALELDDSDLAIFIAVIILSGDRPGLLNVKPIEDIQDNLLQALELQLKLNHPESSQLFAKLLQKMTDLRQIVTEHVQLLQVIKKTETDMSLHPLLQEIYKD
LXRα, sequence (Q13133 209-447 limits assumed): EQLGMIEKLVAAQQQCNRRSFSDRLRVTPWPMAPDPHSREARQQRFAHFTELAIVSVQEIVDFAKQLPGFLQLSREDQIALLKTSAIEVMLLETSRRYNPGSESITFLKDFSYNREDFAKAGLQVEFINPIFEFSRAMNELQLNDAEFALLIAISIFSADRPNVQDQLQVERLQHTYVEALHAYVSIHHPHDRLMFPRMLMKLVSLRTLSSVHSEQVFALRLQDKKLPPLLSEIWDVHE
PPARα, sequence (Q07869 239-466 limits assumed): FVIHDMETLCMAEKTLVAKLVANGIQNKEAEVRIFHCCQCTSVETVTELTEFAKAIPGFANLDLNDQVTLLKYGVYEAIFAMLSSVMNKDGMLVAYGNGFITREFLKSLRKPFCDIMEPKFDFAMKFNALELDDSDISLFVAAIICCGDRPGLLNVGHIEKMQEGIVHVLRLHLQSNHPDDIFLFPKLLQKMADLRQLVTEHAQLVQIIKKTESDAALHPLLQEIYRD

NC(=O)c1cc(Cn2cc(-c3c(-c4ccc(Cl)cc4)nc4cc(F)ccn34)nn2)ccc1Cl [MI-883, 2-chloro-5-((4-(2-(4-chlorophenyl)-7-fluoroimidazo[1,2-a]pyridin-3-yl)-1H-1,2,3-triazol-1-yl)methyl)benzamide]
liver Apoc1, Apoc4, Apoa5, Apoa1, RNA-Seq ([1]; HFD study): marginally but significantly downregulated | liver Scarb1, Angptl3, Lipc, RNA-Seq ([1]; HFD study): marginally, but significantly, downregulated | liver genes of fatty acid metabolism (Scd1, Fabp2, Srebf1), RNA-Seq ([1]; HFD study): significantly downregulated | liver transporters Abcb1, Bsep, Abcg5/8 ([1]; HFD study): not been significantly affected | liver Hmgcr mRNA upregulation ([1]; HFD study (Fig. 6e)): 1.31 fold and 1.3 fold | liver Scd1 mRNA, log2FC_DESeq ([1]; HFD study, n=5, FDR_DESeq 0.0023): -0.4854 log2FC | liver Cyp2c70, log2FC ([1]; HFD study, 0.008 FDR_DESeq): –0.58 log2FC | NRs assays: PPARa (relative to ctrl, replicates) (PPARα): 0.75 and 0.92 and 1.14 | NRs assays: GAL4-LXR+RXR (relative to ctrl, replicates) (LXRα): 0.88 and 1.89 and 2.24 | NRs assays: PPARy (relative to ctrl, replicates) (PPARγ): 0.61 and 0.89 and 1.05 | PXR/DRIP2025 (MED1) two-hybrid activity, replicates (PXR/MED1; MI-883 30 μM): 0.42 and 0.46 and 0.18 and 0.3 and 0.2 | PXR/DRIP2025 (MED1) two-hybrid activity, replicates (PXR/MED1; single agent: RIF (10 µM), MI-883 10 μM): 0.33 and 0.2 and 0.19 and 0.27 and 0.23 | NRs assays: TH (GL4-hTRa) (relative to ctrl, replicates) (THα): 1.64 and 1.08 and 1.31 | Isoleucine (plasma metabolomic data) [2, 5]: 93.5 and 119.8 and 74.2 and 56.6 and 106.4 and 73.7 | Leucine (plasma metabolomic data) [2, 5]: 53.5 and 73.3 and 34.8 and 24.3 and 49.7 and 38.6 | Valine (plasma metabolomic data) [2, 5]: 2968.9 and 1967.5 and 1520.8 and 1183.5 and 1942.7 and 1962.8 | plasma 2-hydroxy-3-oxopropanoate, change ([2]; HFD study, male mice): 1.595 fold | plasma 5-aminopentanoic acid (5-aminovalerate), change ([2]; HFD study, male mice): 1.375 fold | plasma isoleucine, change ([2]; HFD study, male mice): 1.638 fold | plasma small-molecule metabolome ([2]; HFD study, male mice): no significant effect | insulinemia ([3]; HFD study): no effect | postprandial glucose concentrations in IPGTT or IPITT ([3]; HFD study): did not significantly decrease | plasma glucose levels ([3]; both studies): no effect | half-life [4]: > 2 h
